Data reported in article PMC7966503, “Deciphering the Pharmacological Mechanisms of Guizhi-Fuling Capsule on Primary Dysmenorrhea Through Network Pharmacology” (Frontiers in Pharmacology, 2021).
Values joined by “and” are separate entries in the source; they are usually repeats but may differ in a detail not shown here. Identical values can stand only once. Like-named read-outs stand apart in the source and are kept apart here.

Key:
[1] = biological target: T1, recombinant human COX2 (Homo sapiens, UniProt P35354); assay: COX2 activity assay (cyclooxygenase-2 inhibitor screening kit, fluorescence); type: biochemical; conditions: duplicated samples
T1 construct: purchased Beyotime #S0168
T1 sequence (P35354 18-604): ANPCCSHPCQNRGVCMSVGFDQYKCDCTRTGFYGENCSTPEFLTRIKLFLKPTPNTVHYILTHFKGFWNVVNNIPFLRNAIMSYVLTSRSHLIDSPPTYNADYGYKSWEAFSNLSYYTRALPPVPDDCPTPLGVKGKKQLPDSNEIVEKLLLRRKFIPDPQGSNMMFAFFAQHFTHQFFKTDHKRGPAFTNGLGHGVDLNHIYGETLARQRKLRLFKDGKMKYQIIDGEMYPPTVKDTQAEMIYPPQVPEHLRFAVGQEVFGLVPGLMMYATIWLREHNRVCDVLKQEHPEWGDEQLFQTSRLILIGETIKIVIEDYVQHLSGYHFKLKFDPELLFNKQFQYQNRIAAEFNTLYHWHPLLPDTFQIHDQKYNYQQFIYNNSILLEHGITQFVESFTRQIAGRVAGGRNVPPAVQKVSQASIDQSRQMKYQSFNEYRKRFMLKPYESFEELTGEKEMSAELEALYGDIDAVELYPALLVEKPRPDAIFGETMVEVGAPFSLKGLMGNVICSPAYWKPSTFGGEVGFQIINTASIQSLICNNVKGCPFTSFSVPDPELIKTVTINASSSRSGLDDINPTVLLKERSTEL
Description: And then we selected predicted compounds and a specific target for preliminary analysis of their dosages and ratios as a starting point. In vitro enzyme activity assays were used to analyze the relationship between predicted GZFLC compounds’ different dosages and their intervention intensity on a specific target COX2, and to investigate GZFLC’s intervention intensity on COX2 under the specific ratio of GZFLC compounds which is relatively fixed in GZFLC. The content in the GZFLC (Jiangsu Kanion Pharmaceutical Co., Ltd. Jiangsu, China, No. 170601) was weighed and extracted with dimethyl sulfoxide (DMSO, 32.308:1, W/V, mg/ml) at 37°C for 30 min. The liquid was collected by centrifugation, and the supernatant was filtered through a 0.22 μ filter. The effect of GZFLC or pure chemicals including 1,2,3,4,6-penta-O-galloyl-beta-D-glucopyranose (purity (%) ≥98%, CAS: 14,937–32–7, Pubchem CID: 65238, Nanjing SenBeiJia Biological Technology Co., Ltd.), galloylpaeoniflorin (purity (%) ≥98%, CAS: 122,965–41–7, Pubchem CID: 46882879, Nanjing SenBeiJia Biological Technology Co., Ltd.), ethyl gallate (purity (%)≥98%, CAS: 831–61–8, Pubchem CID: 13250, Nanjing SenBeiJia Biological Technology Co., Ltd.) and gallic acid (purity (%)≥98%, CAS: 149–91–7, Pubchem CID: 370, Nanjing SenBeiJia Biological Technology Co., Ltd.) on COX2 activity was measured using cyclooxygenase-2 inhibitor screening kit (Beyotime, Cat. No. #S0168). Briefly, the recombinant human COX2 assay mixture (total volume = 90μL/well) consisting of assay buffer, cofactor, COX2 enzyme, and test compound (diluted in DMSO, 5.56% DMSO finally in assay) was incubated at 25°C for 5 min. Detection of the product was performed by adding probe (5μL/well). Arachidonic acid was added and the reaction was allowed to proceed for 15 min at 37°C. The fluorescence of the resulting solution was measured using SpectraMax M2e multilabel plate reader (Molecular Devices, United Kingdom). […] Data was represented as X¯±SD of duplicated samples. The effect of the samples on COX2 was calculated using the following equation: Relative activity of COX2(%)=(RFUsample−RFUBW/RFUA−RFUBW)×100%.

[2] = tested on: oxytocin-induced dysmenorrhea murine model; assay: Writhing response in oxytocin-induced dysmenorrhea murine model; type: in vivo, ICR mice; conditions: 0.1 g/kg oral; within 30 min after oxytocin; mean±SEM, n = 10; model group 32.6 ± 8.5
Protocol: (§1) Oxytocin-induced dysmenorrhea in mice was performed according to the method previously reported ([Sun et al., 2002]). […] Except for the normal group (subcutaneous injection of saline), the other groups were administrated by subcutaneous estradiol benzoate injection (0.05 ml/mouse on the first and 10th day, and 0.025 ml/mouse on the remaining days) for ten consecutive days. […] On the 10th day, oxytocin (0.2 ml/2 IU/mouse) was administered by peritoneal injection 1 h after the last administration. The number of animal writhing times was observed and recorded within 30 min after injection of oxytocin. […] The mice were sacrificed immediately. The uterus tissues were fixed with 10% formalin for further study.

[3] = tested on: oxytocin-induced dysmenorrhea murine model; assay: Uterine histopathology (H&E) in oxytocin-induced dysmenorrhea murine model; type: in vivo, ICR mice; conditions: ibuprofen 0.1 g/kg; GZFLC 0.54 and 1.08 g/kg oral, seven days
Protocol: as §1, with “study. The uterus tissues were fixed in 10% formalin and stained with hematoxylin and eosin (H&E). […] According to the severity of the lesion, it was recorded as one point (mild), two points (moderate), three points (severe), four points (extremely severe), no lesion was recorded as 0 point. All scores were accumulated and the average score ( X¯±SD ) of each animal in each group was calculated.” for “study.”

[4] = read-out: IC50, inhibition of the activity of COX2 in vitro (converted)

SMILES | IC50 [1, 4] | also measured
O=C(OC[C@H]1O[C@@H](OC(=O)c2cc(O)c(O)c(O)c2)[C@H](OC(=O)c2cc(O)c(O)c(O)c2)[C@@H](OC(=O)c2cc(O)c(O)c(O)c2)[C@@H]1OC(=O)c1cc(O)c(O)c(O)c1)c1cc(O)c(O)c(O)c1 [1,2,3,4,6-penta-O-galloyl-beta-D-glucopyranose] | 0.38 µM and 0.383 µM | –
CCOC(=O)c1cc(O)c(O)c(O)c1 [ethyl gallate] | 1.11 µM | –
O=C(O)c1cc(O)c(O)c(O)c1 [gallic acid] | – | IC50 ([1]; IC50, inhibition of the activity of COX2 in vitro): 1.95 µM and 1.94 µM
C[C@@]12C[C@@]3(O)O[C@@H](O1)[C@]1(COC(=O)c4ccccc4)[C@H]3C[C@@]12O[C@@H]1O[C@H](COC(=O)c2cc(O)c(O)c(O)c2)[C@@H](O)[C@H](O)[C@H]1O [galloylpaeoniflorin] | 0.74 µM and 0.743 µM | –
CC(C)Cc1ccc(C(C)C(=O)O)cc1 (stereo not drawn) [ibuprofen] | – | number of writhing times [2]: 5.9 ± 2.1; degree of uterine lesions (histopathology, H&E) [3]: reducing the degree of uterine lesions
